According to patent publication US6500421B1, “In vivo selection of primitive hematopoietic cells” (St. Jude Children's Research Hospital, priority 1999, dated 2002):

Experiments:
[1] = system: vector-expressing myeloid progenitor cells; conditions: mice, human DHFR variant (Zhao et al. 1994); cited from earlier work
[2] = system: human myeloid progenitor cells; conditions: in vitro, MTX-containing cultures, human DHFR variant (Flasshove et al. 1995); cited from earlier work
[3] = system: murine myeloid progenitors; assay: Defined in vitro liquid culture of unseparated murine bone marrow, myeloid progenitor assay after four days; type: cell-based, mice; conditions: TMTX 150 nM; for sensitization of progenitor cells to TMTX: TTI at 1.0 μM or 0.1 μM, 0.1 μM or 1 μM thymidine
Protocol: FIGS. 1a & 1b a show TTIs effectively block nucleoside salvage and potentiate TMTX toxicity at physiological concentrations of thyrnidine. Unseparated bone marrow from normal C57B1/6 or WBBF1+/+ mice were cultured in DMEM plus dialyzed FBS with or without 150 nM TMTX, […] hypoxanthine and 0.1, 1.0 or 10 μM thymidine. In addition, either A) NBMPR or B) draflazine at 0.1 or 1.0 μM were added to the indicated suspension cultures. Progenitors were assayed by a semisolid methylcellulose-based myeloid progenitor assay after four days of suspension culture.
We developed a defined in vitro liquid culture system to determine the mechanism by which murine myeloid progenitors escape killing with TMTX. This system involves the culture of unseparated murine bone marrow in medium supplemented with optimal concentrations of hematopoietic growth factors (IL-3 at 20 ng/ml, human IL-6 at 50 ng/ml, rat SCF at 50 ng/ml), and either undialyzed fetal bovine serum (FBS) or dialyzed FBS at 15% v/v final concentration, that has been depleted of detectable thymidine and hypoxanthine. The progenitor content is determined four days after culture initiation.
The number of progenitors in cultures without TMTX were similar using either dialyzed or undialyzed serum. However, TMTX addition (150 nM) allowed survival of at least 50% of the myeloid progenitors in cultures containing undialyzed serum compared to 5% progenitor survival in cultures containing dialyzed serum.
Thymidine transport inhibitors (TTI) were added to our defined liquid culture system. […] However, supraphysiological thymidine levels (10 μM) were able to overcome the TTI-specific blockage of thymidine import, restoring full progenitor survival.

[4] = system: murine myeloid progenitors; assay: In vivo treatment of normal mice; bone marrow cellularity and myeloid progenitor content per femur; conditions: for marrow cellularity / number of myeloid progenitors in the marrow: ip five consecutive days, 24 hrs after last treatment, TMTX 130 mg/kg, NBMPR-P 20 mg/kg, draflazine 20 mg/kg, alone or combined; for number of myeloid progenitors in the marrow: relative to untreated control mice
Protocol: FIGS. 3a & 3b show thymidine transport inhibitors sensitize murine progenitors to TMTX in vivo Normal C57B1/6, WBBF1+/+ or B6.C-H1^6/By (HW80) mice were administered TMTX (130 mg/kg), NBMPR-P (20 mg/kg) or draflazine (20 mg/kg) alone, or the combination of TMTX+NBMPR-P or TMTX+draflazine ip for five consecutive days. 24 hrs following the last treatment, mice were sacrificed and bone marrow cellularity and myeloid progenitor content per femur were analyzed relative to untreated mice.
To determine if the antifolate trimetrexate (TMTX), could be used to inhibit hematopoietic progenitor cells which had not been genetically modified to contain and express a mutant dihydrofolate reductase, we treated mice with high doses of TMTX and measured the myeloid progenitor and stem cell content in the bone marrow. Mice were intraperitoneally administered 100 or 130 mg/kg TMTX for five consecutive days. Bone marrow cellularity and progenitor content was examined relative to untreated mice 24 hrs after the final treatment. […] Thus, although differentiated murine hematopoietic cells are highly sensitive to TMTX in vivo, immature myeloid progenitors resist it's cytotoxic effects.
In order to determine whether the combination of TMTX and TTIs will kill murine myeloid progenitors in vivo, normal mice were intraperitoneally administered TMTX (130 mg/kg) together with either NBMPR-5′ monophosphate (NBMPR-P) (20 mg/kg) or draflazine (20 mg/kg) for five consecutive days. […] The myeloid progenitor content in the marrow was also measured following these various treatments. […] Thus, while TMTX alone is insufficient for the killing of myeloid progenitors in vivo, either draflazine or NBMPR-P can be used to sensitize progenitors to TMTX thereby allowing elimination of unmodified cells in vivo.

hematopoietic stem cells = assay: Stem cell kill: marrow of treated C57B1/6J donors transplanted into W/Wv mice, hemoglobin electrophoresis; type: in vivo; conditions: donors given five daily doses of TMTX at 100 mg/kg/day
Protocol: C57B1/6 donor mice were administered either 100 mg/kg TMTX, 100 mg/kg TMTX+20 mg/kg NBMPR-P, or 130 mg/kg TMTX+20 mg/kg NBMPR-P ip for five consecutive days. 24 hrs following the last treatment, bone marrow was harvested and transplanted into genetically anemic W/W^V mice. The hemoglobin phenotype of transplanted mnice was determined after 8 weeks.
The above experiments indicate that the combination of an antifolate (TMTX) and TTIs effectively eliminates unmodified myeloid progenitors. Although selection at the progenitor level should be useful in a number of circumstances, selection at the level of repopulating stem cells should give the most durable and stable selection of vectormodified cells. To test if the combination of TMTX and NBMPR-P could be used to kill unmodified stem cells, C57B1/6J mice were treated with various drug combinations (intraperitoneal injections at the following doses: trimetrexate at 130 mg/kg, NBMPR-P at 20 mg/kg, and draflazine at 20 mg/kg) and then used as donors for bone marrow transplantation. Stem cell viability was measured by hemoglobin electrophoresis patterns in W/Wv mice used as transplant recipients. […]
Repopulation can be monitored by hemoglobin electrophoresis, which can distinguish the pattern obtained from C57B1/6J erthryocytes versus the W/Wv background.

[5] = system: human myeloid progenitor cells; assay: L22Y-DHFR or neo transduced human peripheral blood progenitors plated in semisolid media with TMTX; type: cell-based; conditions: mobilized human peripheral blood progenitors, L22Y-DHFR versus neo transduced, TMTX 0 to 500 ng/ml in semisolid media
Protocol: Peripheral blood cells collected following chemotherapy and growth factor mobilization were prestimulated for 48 hrs with IL-3, IL-6 and SCF, followed by coculture on irradiated amphotropic retroviral producers (L22Y-DHFR or neo) for an additional 48 hrs. Nonadherent hematopoietic cells were then assayed for drug resistant progenitors by addition of increasing concentrations of TMTX to the semisolid methylcellulose cultures.
Human progenitor cells were transduced as follows. Mononuclear cells were isolated by passing peripheral blood cells over a Ficoll gradient. These cells were cultured at 5×10^5 cells/ml in the presence of human IL-3 at 20 ng/ml, human IL-6 at 50 ng/ml, and human SCF at 50 ng/ml and 15% v/v fetal calf serum. After 48 hours, these cells were placed on plates containing an irradiated confluent layer of fibroblasts that were producing the amphotropic L22Y vector. The cytokine concentrations during this coculture period were identical to that used during the previous prestimulation phase. Protamine sulfate was also included during the coculture phase at a concentration of 4 μg/ml. After 48 hours of coculture, cells were washed and plated in semisolid media obtained from Stem Cell Technologies according to manufacturers specifications. This media was pretreated with thymidine phosphorylase at 1 unit/3 ml of media. […]

[6] = system: human CD34 immunoselected progenitors; assay: Human CD34-enriched peripheral blood progenitors in defined liquid culture; type: cell-based; conditions: 1.0 μM draflazine, 150 nM trimetrexate, 100 μM hypoxanthine, thymidine 0 to 1.0 micromolar, dialyzed serum
Protocol: CD34-enriched, mobilized peripheral blood progenitors were assayed in the defined suspension culture system, as described for murine cells in the legend to FIG. 1. Two separate human samples were examined, and progenitor survival is represented relative to progenitors cultured without TMTX.
We examined the ability of draflazine to potentiate TMTX toxicity of human CD34 immunoselected progenitors in our defined liquid culture system comprising 15% dialyzed fetal calf serum, 20 ng/ml human IL-3, 50 ng/ml human IL-6, and 50 ng/ml human SCF in the presence-or absence of 1.0 μM draflazine, 100 μM hypoxanthine, 150 nM trimetrexate, and varying concentrations of thymidine ranging from 0 to 1.0 micromolar. […] CD34 selection was done using a Ceprate cell column (CellPro) according to the manufacturers instructions.

CN(Cc1cnc2nc(N)nc(N)c2n1)c1ccc(C(=O)N[C@@H](CCC(=O)O)C(=O)O)cc1 [MTX, methotrexate]
increase in vector-expressing myeloid progenitor cells following MTX treatment [1]: 2 fold | amplification of vector-expressing progenitor cells [2]: amplified two-fold

O=[N+]([O-])c1ccc(CSc2ncnc3c2ncn3[C@@H]2O[C@H](CO)[C@@H](O)[C@H]2O)cc1 [NBMPR, nitrobenzylmercaptopurine riboside]
sensitization of progenitor cells to TMTX [3]: effectively sensitized progenitor cells to TMTX

O=[N+]([O-])c1ccc(CSc2ncnc3c2ncn3[C@@H]2O[C@H](COP(=O)(O)O)[C@@H](O)[C@H]2O)cc1 [NBMPR-P, NBMPR-5′ monophosphate]
marrow cellularity [4]: neither TTI alone had any measurable effect | number of myeloid progenitors in the marrow [4]: no effect on progenitor survival

COc1cc(NCc2ccc3nc(N)nc(N)c3c2C)cc(OC)c1OC [TMTX, trimetrexate]
number of myeloid progenitors and stem cells per femur ([4]; TMTX 100 or 130 mg/kg ip for five consecutive days, 24 hrs after final treatment): remained the same in all groups of mice | bone marrow cellularity ([4]; TMTX 100 or 130 mg/kg ip for five consecutive days, 24 hrs after final treatment, relative to untreated mice): severe marrow hypoplasia | number of myeloid progenitors in the marrow [4]: modest increase | hematopoietic repopulating ability of donor marrow (hematopoietic stem cells): failed to adversely effect | TMTX resistance of L22Y-DHFR transduced progenitors [5]: increased TMTX-resistance relative to control (neo) transduced progenitor cells | rescue of myeloid progenitors from TMTX toxicity ([3]; dialyzed serum treated with thymidine phosphorylase, hypoxanthine 100 μM alone added): did not rescue myeloid progenitors from TMTX toxicity | myeloid progenitor survival ([3]; dialyzed serum, both thymidine and hypoxanthine added): fully restored myeloid progenitor survival | progenitor survival ([3]; dialyzed serum, four days): 5% | restoration of TMTX resistance of progenitors ([3]; dialyzed serum, thymidine 1.0 μM alone added): did not restore TMTX resistance | survival of myeloid progenitors ([3]; undialyzed serum, four days): at least 50%

NC(=O)C1CN(CCCCC(c2ccc(F)cc2)c2ccc(F)cc2)CCN1CC(=O)Nc1c(Cl)cc(N)cc1Cl (stereo not shown) [draflazine]
marrow cellularity [4]: neither TTI alone had any measurable effect | number of myeloid progenitors in the marrow [4]: no effect on progenitor survival | potentiation of TMTX toxicity [6]: effectively potentiated TMTX toxicity | sensitization of progenitor cells to TMTX [3]: effectively sensitized progenitor cells to TMTX
